According to ChEMBL document CHEMBL3886808, “Pyrrolidine derivatives and their use as complement pathway modulators” (2016):

Target: Complement factor D (Homo sapiens, UniProt P00746)
Assay: In Vitro Assay: Recombinant human factor D (expressed in E. coli and purified using standard methods) at 10 nM concentration is incubated with test compound at various concentrations for 1 hour at room temperature in 0.1 M Hepes buffer, pH 7.5, containing 1 mM MgCl2, 1 M NaCl and 0.05% CHAPS. A synthetic substrate Z-Lys-thiobenzyl and 2,4-dinitrobenzenesulfonyl-fluoresceine are added to final concentrations of 200 μM and 25 μM, respectively. The increase in fluorescence is recorded at excitation of 485 nm and emission at 535 nm in a microplate spectrofluorimeter.

Sequence of Complement factor D (P00746 whole entry): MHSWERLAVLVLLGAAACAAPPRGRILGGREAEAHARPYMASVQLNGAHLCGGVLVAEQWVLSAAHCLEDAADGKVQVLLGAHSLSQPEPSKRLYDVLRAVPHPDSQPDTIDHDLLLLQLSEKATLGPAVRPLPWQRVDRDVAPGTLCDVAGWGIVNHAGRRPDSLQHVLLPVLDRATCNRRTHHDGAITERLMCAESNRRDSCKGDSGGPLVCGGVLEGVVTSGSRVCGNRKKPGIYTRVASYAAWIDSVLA

| SMILES | IC50 [nM] |
| --- | --- |
| CC(=O)c1nn(CC(=O)N2[C@@H]3C[C@@H]3C[C@H]2C(=O)NCCCC(F)(F)F)c2ncccc12 | 1140 |
| CC(F)(F)CCNC(=O)[C@@H]1C[C@H]2C[C@H]2N1C(=O)Cn1nc(C(N)=O)c2ccccc21 | 1050 |
